Assay results published in ChEMBL document CHEMBL1201862, “PubChem BioAssay data set” (2004).
Calls of active or inactive are those of the source.

Assays:
[1] = molecular target: T1, Caspase-3 (Homo sapiens, UniProt P42574); type: functional;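 further: Dose-response selectivity test against caspase-3 for candidate inhibitors of sentrin-specific proteases (SENPs)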
T1 sequence (P42574 whole entry): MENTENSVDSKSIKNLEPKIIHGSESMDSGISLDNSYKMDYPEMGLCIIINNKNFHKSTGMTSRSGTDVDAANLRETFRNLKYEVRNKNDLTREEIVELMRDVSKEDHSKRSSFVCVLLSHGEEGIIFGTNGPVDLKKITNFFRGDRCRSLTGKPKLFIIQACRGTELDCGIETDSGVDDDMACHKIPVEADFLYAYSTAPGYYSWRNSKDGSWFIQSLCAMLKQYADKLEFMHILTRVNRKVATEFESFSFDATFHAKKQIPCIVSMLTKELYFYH

[2] = molecular target: T2, Sentrin-specific protease 6 (Homo sapiens, UniProt Q9GZR1); type: functional;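 further: Luminescence-based dose-response confirmatory assay of SENP6 inhibition, following up an ultra-high-throughput screen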
T2 sequence (Q9GZR1 whole entry): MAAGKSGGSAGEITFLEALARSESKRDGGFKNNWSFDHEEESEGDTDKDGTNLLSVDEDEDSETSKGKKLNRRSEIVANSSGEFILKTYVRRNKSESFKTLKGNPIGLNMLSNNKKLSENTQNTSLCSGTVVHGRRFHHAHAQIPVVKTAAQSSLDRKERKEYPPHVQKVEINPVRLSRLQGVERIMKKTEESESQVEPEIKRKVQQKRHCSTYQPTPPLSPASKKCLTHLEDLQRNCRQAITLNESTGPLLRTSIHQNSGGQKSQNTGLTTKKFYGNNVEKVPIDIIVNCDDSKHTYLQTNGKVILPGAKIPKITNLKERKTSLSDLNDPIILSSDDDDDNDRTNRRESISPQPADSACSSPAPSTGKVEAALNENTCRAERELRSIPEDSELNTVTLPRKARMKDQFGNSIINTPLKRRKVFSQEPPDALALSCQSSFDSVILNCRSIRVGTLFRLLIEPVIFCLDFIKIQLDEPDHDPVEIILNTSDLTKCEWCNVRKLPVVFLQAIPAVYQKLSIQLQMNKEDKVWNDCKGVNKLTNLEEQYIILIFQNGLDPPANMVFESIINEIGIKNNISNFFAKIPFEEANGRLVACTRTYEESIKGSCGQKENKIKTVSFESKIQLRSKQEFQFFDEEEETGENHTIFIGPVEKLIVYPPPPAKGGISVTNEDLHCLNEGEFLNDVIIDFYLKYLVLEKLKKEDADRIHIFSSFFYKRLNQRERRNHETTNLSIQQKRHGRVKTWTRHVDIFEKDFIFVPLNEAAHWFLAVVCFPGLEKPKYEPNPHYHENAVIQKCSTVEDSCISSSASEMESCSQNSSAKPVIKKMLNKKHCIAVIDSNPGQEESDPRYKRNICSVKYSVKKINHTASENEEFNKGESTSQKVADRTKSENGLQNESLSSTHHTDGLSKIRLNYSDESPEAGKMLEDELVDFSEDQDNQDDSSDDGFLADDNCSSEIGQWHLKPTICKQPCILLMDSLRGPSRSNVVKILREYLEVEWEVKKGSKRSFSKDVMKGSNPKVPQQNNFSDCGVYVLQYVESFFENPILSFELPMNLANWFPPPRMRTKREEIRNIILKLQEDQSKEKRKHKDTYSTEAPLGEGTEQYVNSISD

[3] = molecular target: T3, DNA repair protein RAD52 homolog (Homo sapiens, UniProt P43351); type: functional, biochemical
T3 sequence (P43351 whole entry): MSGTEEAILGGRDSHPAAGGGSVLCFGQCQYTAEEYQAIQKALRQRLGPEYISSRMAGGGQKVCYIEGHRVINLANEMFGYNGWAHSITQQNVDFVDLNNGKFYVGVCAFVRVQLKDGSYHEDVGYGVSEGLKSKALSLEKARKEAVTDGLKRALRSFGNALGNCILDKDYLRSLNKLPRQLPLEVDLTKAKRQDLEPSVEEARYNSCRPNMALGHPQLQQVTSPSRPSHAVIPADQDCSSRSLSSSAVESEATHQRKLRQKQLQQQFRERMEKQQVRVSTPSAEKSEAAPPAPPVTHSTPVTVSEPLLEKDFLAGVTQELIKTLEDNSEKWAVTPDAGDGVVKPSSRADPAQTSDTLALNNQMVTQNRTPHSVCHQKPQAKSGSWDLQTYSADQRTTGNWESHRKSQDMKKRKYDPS

[4] = molecular target: Tyrosyl-DNA phosphodiesterase 2 (Homo sapiens, UniProt O95551); assay: human TDP2 enzyme inhibitors, dose response, biochemical, epi absorbance, IC50 (AID 743297)
Tyrosyl-DNA phosphodiesterase 2, sequence (O95551 whole entry): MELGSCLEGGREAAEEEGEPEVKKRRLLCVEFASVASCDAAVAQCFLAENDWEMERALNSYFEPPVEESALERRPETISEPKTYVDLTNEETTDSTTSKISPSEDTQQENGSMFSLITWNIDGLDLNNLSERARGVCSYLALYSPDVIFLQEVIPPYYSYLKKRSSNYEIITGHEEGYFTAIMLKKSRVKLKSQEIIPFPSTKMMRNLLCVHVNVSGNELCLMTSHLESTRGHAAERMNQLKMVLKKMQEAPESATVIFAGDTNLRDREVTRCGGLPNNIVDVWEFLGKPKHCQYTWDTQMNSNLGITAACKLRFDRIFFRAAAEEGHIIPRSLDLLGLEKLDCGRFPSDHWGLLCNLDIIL

[5] = molecular target: Caspase-7 (Homo sapiens, UniProt P55210); assay: human caspase-7 inhibitors, dose response, selectivity assay for caspase-6 inhibitor project, biochemical, DEVD-R110 fluorescence, cherry-pick (AID 743295)
Caspase-7, sequence (P55210 24-198 limits assumed): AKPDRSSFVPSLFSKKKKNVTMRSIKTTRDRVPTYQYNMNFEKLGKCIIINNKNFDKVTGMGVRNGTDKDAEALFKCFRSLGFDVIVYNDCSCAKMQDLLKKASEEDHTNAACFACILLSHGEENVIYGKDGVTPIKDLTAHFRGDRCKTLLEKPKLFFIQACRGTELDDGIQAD
Caspase-7, sequence (P55210 207-303 limits assumed): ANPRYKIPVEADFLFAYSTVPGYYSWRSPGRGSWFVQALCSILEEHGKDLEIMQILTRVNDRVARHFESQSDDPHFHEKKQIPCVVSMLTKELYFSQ

[6] = molecular target: T4, SUMO-activating enzyme (Homo sapiens, UniProt Q9UBT2); assay: SUMOylation inhibitor hit validation, confirmation, SUMOylation inhibitor project, biochemical, AlphaScreen (AID 2018); type: functional
T4 sequence (Q9UBE0 whole entry): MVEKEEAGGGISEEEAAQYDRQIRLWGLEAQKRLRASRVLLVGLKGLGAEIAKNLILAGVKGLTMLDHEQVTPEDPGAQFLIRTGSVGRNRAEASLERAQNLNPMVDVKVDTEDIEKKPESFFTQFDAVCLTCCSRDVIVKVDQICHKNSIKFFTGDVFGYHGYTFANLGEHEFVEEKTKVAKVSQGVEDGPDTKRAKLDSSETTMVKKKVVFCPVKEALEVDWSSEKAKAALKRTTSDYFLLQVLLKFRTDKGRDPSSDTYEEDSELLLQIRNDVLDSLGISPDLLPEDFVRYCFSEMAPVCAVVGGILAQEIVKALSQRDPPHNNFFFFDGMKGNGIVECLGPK
T4 sequence (Q9UBT2 whole entry): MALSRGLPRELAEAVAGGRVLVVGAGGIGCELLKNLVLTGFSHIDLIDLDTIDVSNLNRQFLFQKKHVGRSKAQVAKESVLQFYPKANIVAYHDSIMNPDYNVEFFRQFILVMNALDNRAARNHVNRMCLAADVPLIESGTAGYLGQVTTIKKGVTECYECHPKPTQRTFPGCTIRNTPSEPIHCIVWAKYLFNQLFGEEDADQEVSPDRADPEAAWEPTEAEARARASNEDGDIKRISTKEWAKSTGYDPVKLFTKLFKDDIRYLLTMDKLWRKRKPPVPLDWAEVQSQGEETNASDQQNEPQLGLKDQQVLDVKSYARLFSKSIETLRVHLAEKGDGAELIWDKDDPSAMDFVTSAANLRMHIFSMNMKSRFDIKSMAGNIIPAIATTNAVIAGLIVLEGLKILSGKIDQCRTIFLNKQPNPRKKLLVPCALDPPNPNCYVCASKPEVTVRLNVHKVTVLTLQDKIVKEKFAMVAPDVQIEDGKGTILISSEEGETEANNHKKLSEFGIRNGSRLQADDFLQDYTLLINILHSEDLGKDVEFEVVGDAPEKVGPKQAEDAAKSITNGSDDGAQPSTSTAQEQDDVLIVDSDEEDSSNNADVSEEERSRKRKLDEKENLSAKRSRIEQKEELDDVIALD

[7] = molecular target: T4, SUMO-activating enzyme; assay: inhibitors of in vitro SUMOylation cascade, primary screen, biochemical, HTRF, uHTS (AID 2006); type: protein-complex assay
[8] = molecular target: T5, Microphthalmia-associated transcription factor (Homo sapiens, UniProt O75030); assay: TRPM1 promoter luciferase signal decrease, dose response, MITF inhibitor project, cell-based, SK-MEL-5, cherry-picked, set 3 (AID 493073); type: functional
T5 sequence (O75030 whole entry): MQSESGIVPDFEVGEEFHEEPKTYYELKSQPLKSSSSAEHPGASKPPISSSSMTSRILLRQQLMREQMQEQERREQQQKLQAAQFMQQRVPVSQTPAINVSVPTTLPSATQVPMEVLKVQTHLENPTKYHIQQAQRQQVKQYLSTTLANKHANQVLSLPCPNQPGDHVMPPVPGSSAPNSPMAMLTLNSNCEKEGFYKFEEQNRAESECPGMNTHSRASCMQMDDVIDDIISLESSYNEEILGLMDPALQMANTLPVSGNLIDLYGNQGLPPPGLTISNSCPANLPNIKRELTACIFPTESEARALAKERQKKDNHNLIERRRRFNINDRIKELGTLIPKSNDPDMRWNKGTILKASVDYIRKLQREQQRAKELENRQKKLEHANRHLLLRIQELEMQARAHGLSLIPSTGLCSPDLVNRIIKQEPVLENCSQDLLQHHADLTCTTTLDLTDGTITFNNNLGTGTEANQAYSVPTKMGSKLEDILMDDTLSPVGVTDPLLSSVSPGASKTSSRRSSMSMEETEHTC

[9] = tested on: Vero; assay: Vero cell cytotoxicity, cytotoxicity control for flavivirus capping enzyme inhibitors (AID 588742); type: functional; conditions: Chlorocebus sabaeus
[10] = molecular target: T6, Polyadenylate-binding protein 1 (Homo sapiens, UniProt P11940); assay: PABP1 MLLE–PAM2 interaction inhibitors, dose response, miRNA deadenylation inhibitor project, biochemical, fluorescence polarization, Cy5-PAM2 peptide, secondary (AID 602260); type: functional; conditions: read-out: IC50_Mean
T6 sequence (P11940 whole entry): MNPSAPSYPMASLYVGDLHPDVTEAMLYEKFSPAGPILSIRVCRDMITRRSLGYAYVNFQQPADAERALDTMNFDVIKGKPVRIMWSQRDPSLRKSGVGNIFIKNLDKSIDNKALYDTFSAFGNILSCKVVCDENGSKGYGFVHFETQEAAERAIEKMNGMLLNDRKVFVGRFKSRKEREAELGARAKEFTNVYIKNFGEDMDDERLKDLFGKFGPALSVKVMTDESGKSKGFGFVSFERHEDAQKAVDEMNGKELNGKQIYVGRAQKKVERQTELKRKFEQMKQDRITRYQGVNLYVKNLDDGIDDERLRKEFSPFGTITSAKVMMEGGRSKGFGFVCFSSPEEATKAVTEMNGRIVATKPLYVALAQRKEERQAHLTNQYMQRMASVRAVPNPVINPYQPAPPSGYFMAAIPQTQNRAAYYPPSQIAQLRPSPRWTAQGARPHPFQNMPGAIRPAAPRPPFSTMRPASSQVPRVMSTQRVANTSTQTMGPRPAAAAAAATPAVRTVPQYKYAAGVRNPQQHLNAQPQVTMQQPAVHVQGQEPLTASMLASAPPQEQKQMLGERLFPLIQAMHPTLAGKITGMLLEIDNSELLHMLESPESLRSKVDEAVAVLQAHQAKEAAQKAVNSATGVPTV

[11] = molecular target: T6, Polyadenylate-binding protein 1; assay: PABP1 MLLE–PAM2 binding inhibitor potency, dose response, biochemical, fluorescence polarization, FITC-PAM2 peptide (AID 602259); type: functional; conditions: read-out: IC50_Mean

COc1cc2c(cc1OC)-c1c(OC)c(OC)cc3c1[C@H](C2)N(C)CC3
IC50 [1]: < 1.55 µM (active) | IC50 [2]: 2.21 µM (active) | AC50 [3]: 2.86 µM (active) | IC50 [4]: 6.22 µM (active) | AC50 [5]: 1.77 µM (active)

O=C1C(Cl)=C(N2CCC(C(=O)O)CC2)C(=O)c2ccccc21
IC50 [6]: 5.75 µM (active) | IC50 [7]: 24 µM (active) | IC50 [1]: 15.6 µM (active) | IC50 [2]: 12.6 µM (active)

COC1=C(c2ccccc2)C(=O)c2ccccc2C1=O
AC50 [8]: 9.05 µM (active) | CC50 [9]: 17.8 µM (active) | IC50 [10]: > 66 µM (inactive) | IC50 [11]: > 66 µM (inactive)
